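Protocol summary: plate cells (96-well), add compound at 5 concentrations, incubate 48 h, interpolate endpoints linearly. The concentration for 50% growth inhibition is given as GI50.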 Active and inactive are the calls of the source. No stated cut-off is given here; in the data, active = GI50 up to about 1.1 µM and inactive = higher.
How the values were obtained:
Experiment in all cases: NCI tumour cell line growth inhibition, 48 h
HOP-92 = system: HOP-92
CAKI-1 = system: CAKI-1
HCC 2998 = system: HCC 2998
MDA-MB-435 = system: MDA-MB-435
OVCAR-5 = system: OVCAR-5
SF-295 = system: SF-295
SK-MEL-28 = system: SK-MEL-28
Hs-578T = system: Hs-578T
UACC-62 = system: UACC-62
EKVX = system: EKVX
DU-145 = system: DU-145
KM12 = system: KM12
SNB-75 = system: SNB-75
HCT-15 = system: HCT-15
U-251 = system: U-251
T47D = system: T47D
A549 = system: A549
LOX IMVI = system: LOX IMVI
Malme-3M = system: Malme-3M
IGROV-1 = system: IGROV-1
NCI-H522 = system: NCI-H522
SK-MEL-5 = system: SK-MEL-5
SW-620 = system: SW-620
TK-10 = system: TK-10
CCRF-CEM = system: CCRF-CEM
BT-549 = system: BT-549
UACC-257 = system: UACC-257
HL-60 = system: HL-60
ACHN = system: ACHN
SK-OV-3 = system: SK-OV-3
A498 = system: A498
NCI/ADR-RES = system: NCI/ADR-RES
MCF7 = system: MCF7
OVCAR-4 = system: OVCAR-4
HOP-62 = system: HOP-62
HCT-116 = system: HCT-116
NCI-H23 = system: NCI-H23
PC-3 = system: PC-3
OVCAR-3 = system: OVCAR-3
SR = system: SR
SF-539 = system: SF-539
SN12C = system: SN12C
UO-31 = system: UO-31
COLO 205 = system: COLO 205
SK-MEL-2 = system: SK-MEL-2
MOLT-4 = system: MOLT-4
SNB-19 = system: SNB-19
HT-29 = system: HT-29
OVCAR-8 = system: OVCAR-8
NCI-H460 = system: NCI-H460
MDA-MB-231 = system: MDA-MB-231
RXF 393 = system: RXF 393
K562 = system: K562
M14 = system: M14
NCI-H226 = system: NCI-H226
RPMI-8226 = system: RPMI-8226
MDA-N = system: MDA-N
SF-268 = system: SF-268

Measured: GI50

COc1cc(C=O)cc(/C=N/c2ccc(Br)cc2)c1O
active: MDA-MB-435 1.05 µM | UACC-62 0.347 µM | LOX IMVI 0.16 µM | NCI-H522 0.995 µM | K562 0.555 µM
inactive: HOP-92 3.53 µM | CAKI-1 2.93 µM | HCC 2998 14.1 µM | OVCAR-5 24.5 µM | SF-295 2.52 µM | SK-MEL-28 6.71 µM | Hs-578T 1.8 µM | EKVX 13.6 µM | DU-145 11.3 µM | KM12 10.2 µM | SNB-75 23.8 µM | U-251 4.57 µM | T47D 1.15 µM | A549 4.85 µM | Malme-3M 4.04 µM | IGROV-1 40.3 µM | SK-MEL-5 2.19 µM | SW-620 1.25 µM | TK-10 32.4 µM | CCRF-CEM 7.59 µM | BT-549 6.25 µM | UACC-257 5.75 µM | HL-60 2.11 µM | ACHN 2.53 µM | SK-OV-3 2.17 µM | A498 16.4 µM | NCI/ADR-RES 2.49 µM | MCF7 4.47 µM | OVCAR-4 22.5 µM | HOP-62 11.7 µM | HCT-116 6.79 µM | NCI-H23 17.7 µM | PC-3 2.81 µM | OVCAR-3 13.5 µM | SR 2.68 µM | SF-539 2.38 µM | SN12C 4.13 µM | UO-31 3.2 µM | COLO 205 4.09 µM | SK-MEL-2 2.78 µM | MOLT-4 22 µM | SNB-19 12.7 µM | HT-29 17.7 µM | OVCAR-8 2.86 µM | NCI-H460 2.71 µM | MDA-MB-231 4.44 µM | RXF 393 4.43 µM | M14 1.66 µM | NCI-H226 2.59 µM | RPMI-8226 3.33 µM | MDA-N 3.72 µM | SF-268 1.66 µM
2.15 µM: HCT-15
